Results taken from patent US7422854B1, “Cholesterol reduction signature” (priority 2002, dated 2008).

How the values were obtained:
livers of rats = experiment: Signature Projection Score (SPS): match of liver gene expression to the Cholesterol Reduction Signature; assay type: in vivo; details: dose 10 (mg/ml), rat liver, maximum of training treatments = 100
Description: (§1) After determination of the MTD and FED for a compound, each compound was dissolved in a vehicle for administration on day 1 of the study (additional daily doses were stored as frozen aliquots from this initial formulation). Each compound was administered to three individual male Sprague-Dawley rats for each of the two doses (MTD and FED) for one of four different times (0.25 day, 1 day, 3 days, and 5 days), yielding a total of up to 24 animals per compound study. Vehicle choice was based on solubility of the compound, effect of food on adsorption, and the vehicles used in the literature reports examined during the FED selection investigations, described above. Generally, the route and vehicle in which the FED was defined are used. When there was a choice of routes and vehicles, oral routes were chosen over injection routes. Many compounds, especially oncolytics, are only administerable intravenously. In such cases, the compound was administered as an intravenous formulation into the tail vein. Orally administered compounds were given dissolved in either water, 1% carboxymethycellulose (CMC) or corn oil. Intravenously and intraperitoneally administered compounds were given in 0.9% saline. Subcutaneously administered compounds were given in corn oil. Animal body weights were determined at 1 day and, where appropriate, at 4 days, before necropsy, and clinical observations were made on a daily basis. Control animals were dosed with vehicle only. Three male animals were used for each dose and time combination used for the compound treatment.
(§2) Tissue harvest and handling: After the allocated treatment time, the tissues from the animals were harvested. […] All the tissues collected were divided to provide samples for histopathological analyses, and the remainder of each tissue was then snap-frozen. […] The following blood constituents were measured: Blood Urea Nitrogen (BUN), Creatinine (CRE), Glucose (GLU), Alanine Transaminase (ALT), Aspartate Aminotrans-ferase (AST), Alkaline Phosphatase (ALP), Total Bilirubin (TBI), Sodium (SOD), Potassium (POT), Chloride (CHL), Phosphorus (PHO), Total Protein (TPR), Albumin (ALB), Cholesterol (CHO), Creatine Phosphokinase (CPK), Lactate Dehydrogenase (LDH), Carbon Dioxide (CO2), Uric Acid (UA), and Lipase. […] The parameters were measured using a Baker 9000 blood cell analysis instrument according to the manufactures instructions. The following blood constituents were measured: Leukocyte count (WBC), Differential Leukocyte counts, Erythrocyte count (RBC), Hemoglobin concentration (HGB), Hematocrit (HCT), Mean Corpuscular Volume (MCV), Mean Corpuscular Hemoglobin (MCH), Mean Corpuscular Hemoglobin Concentration (MCC), Thrombocyte Count (PLC). Histopathology: Histopathological analyses of hematoxylin and eosin-stained tissue sections were performed and peer-reviewed by board-certified (Diplomate, American College of Veterinary Pathologists) veterinary pathologists. Preparation of Enriched mRNA: Punch Biopsies were Taken from the Frozen Tissues and were completely homogenized before being processed using the MagNA Pure robot. (Roche Diagnostics Corp., Indianapolis, Ind.) in combination with the MagNA Pure LC RNA Isolation kit II (Roche Diagnostics Corp). The amount of lysis buffer was adjusted to allow 1 ml per 50 mg for liver tissue, or 1 ml per 80 mg for all other tissues. After complete homogenization and before loading of the samples into the 32-well MagNA Pure plate, the samples were syringed 5-6 times using a 20-gauge 3-ml syringe to ensure a smooth solution for robotic processing. Tissue sample processing was performed in duplicate wells (loading 150 μl of homogenized sample and 150 μl of additional lysis buffere to each well) of the MagNA Pure LC, which is programmed to extract mRNA using oligo-dT selection technology into a final elution volume of 100 μl. Poly A(+) RNA sample concentration was performed using a standard ethanol precipitation protocol in the presence of glycogen (50 μg/ml).

rat = details: rat, 4-7 daily dosing; cited from earlier work
male Sprague-Dawley rats = experiment: Cholesterol Lowering Index: total blood cholesterol (clinical chemistry) in treated versus vehicle-treated rats; assay type: in vivo, rat; details: male rats; for Chol index (fold reduction): vs vehicle
Source text: Compound dosing was based on the acute dose LD50s recorded in published reference or literature sources. […] The MTD (maximum tolerated dose) was then selected as the dose at which the animals […] 5-10% body weight during the 5-day range finding study. […] In addition, the clinical observations must show no or mild clinical signs during the whole of the range-finding study. At the next highest dose, signs and symptoms of adverse effects and exceeding those of the MTD should be seen to occur. Should these criteria not be met, the range-finding study is repeated using a modified dose range.
as §1
as §2, with “Corp).” for “Corp). The amount of lysis buffer was adjusted to allow 1 ml per 50 mg for liver tissue, or 1 ml per 80 mg for all other tissues. After complete homogenization and before loading of the samples into the 32-well MagNA Pure plate, the samples were syringed 5-6 times using a 20-gauge 3-ml syringe to ensure a smooth solution for robotic processing. Tissue sample processing was performed in duplicate wells (loading 150 μl of homogenized sample and 150 μl of additional lysis buffere to each well) of the MagNA Pure LC, which is programmed to extract mRNA using oligo-dT selection technology into a final elution volume of 100 μl. Poly A(+) RNA sample concentration was performed using a standard ethanol precipitation protocol in the presence of glycogen (50 μg/ml).”

C#C[C@]1(O)CC[C@H]2[C@@H]3CCc4cc(O)ccc4[C@H]3CC[C@@]21C [ETHINYLESTRADIOL, (17α)-norpregna-1,3,5(10)-trien-20-yne-3,17-diol]
SPS (livers of rats; time point 1 day): 50 | SPS (livers of rats; time point 5 days): 76.2 | reduction in total cholesterol (rat): 89% | Cholesterol Index (fold reduction) (male Sprague-Dawley rats; Table 4, dose 10, time point 5 days): 3.9 fold reduction | Chol index (fold reduction) (male Sprague-Dawley rats; dose 10, time 3 days): 3.65 fold reduction | Chol index (fold reduction) (male Sprague-Dawley rats; dose 10, time 5 days): 4.09 fold reduction
